Experimental data taken from patent US10456467B2, “Nanoparticle delivery system for targeted anti-obesity treatment” (UNIVERSITY OF WYOMING, priority 2014, dated 2019).

Columns and labels:
[1] = CAP release (dissolution) in pH 7.4 phosphate buffer, Vankel dissolution apparatus; assay type: physicochemical; settings: 37° C.
Excerpt: The cumulative release (%) was plotted against time. Cumulative % Release=C1V1×CF/100×C2
C1=Concentration of capsaicin in the final solution (g/ml);
C2=Drug content (mgs) used for dissolution study;
CF=Correction Factor, which is an accommodation for the change in volume due to sampling; and
V1=Volume of dissolution medium (ml)

[2] = cited from earlier work
[3] = target: T1, TRPV1 channel protein (CAP receptor) (Homo sapiens, UniProt Q8NER1); assay: Fura-2 Ca2+ influx imaging in HEK293 cells expressing TRPV1; assay type: cell-based; settings: 1 μM CAP or equivalent, 22 degrees Celsius, FIG. 4
T1 construct: expressed in transfected cells; host or cells: HEK293
Procedure: FIG. 4 is a graph 400 of the time to peak rise of Ca^2+ for PLGA coated CMN, pure CAP and MNPs containing no CAP, according to embodiments described herein. HEK293 cells expressing TRPV1 channel protein (CAP receptor) grown on coverslips were loaded with Fura-2 AM (2 μM) for 40 minutes at room temperature. Cells were washed and then viewed with a Leica DMI3000 B inverted microscope coupled to a Polychrome V digital imaging system with Imago CCD camera. Cells were continuously superfused (22 degrees Celsius) with 2 mM Ca^2+ containing normal extracellular solution (NES). The Ca^2+ influx due to the addition of pure capsaicin (1 μM), CMN or PCMN (equivalent of 1 μM CAP), was observed and measured as a function of fluorescence.

T1 sequence (Q8NER1 whole entry): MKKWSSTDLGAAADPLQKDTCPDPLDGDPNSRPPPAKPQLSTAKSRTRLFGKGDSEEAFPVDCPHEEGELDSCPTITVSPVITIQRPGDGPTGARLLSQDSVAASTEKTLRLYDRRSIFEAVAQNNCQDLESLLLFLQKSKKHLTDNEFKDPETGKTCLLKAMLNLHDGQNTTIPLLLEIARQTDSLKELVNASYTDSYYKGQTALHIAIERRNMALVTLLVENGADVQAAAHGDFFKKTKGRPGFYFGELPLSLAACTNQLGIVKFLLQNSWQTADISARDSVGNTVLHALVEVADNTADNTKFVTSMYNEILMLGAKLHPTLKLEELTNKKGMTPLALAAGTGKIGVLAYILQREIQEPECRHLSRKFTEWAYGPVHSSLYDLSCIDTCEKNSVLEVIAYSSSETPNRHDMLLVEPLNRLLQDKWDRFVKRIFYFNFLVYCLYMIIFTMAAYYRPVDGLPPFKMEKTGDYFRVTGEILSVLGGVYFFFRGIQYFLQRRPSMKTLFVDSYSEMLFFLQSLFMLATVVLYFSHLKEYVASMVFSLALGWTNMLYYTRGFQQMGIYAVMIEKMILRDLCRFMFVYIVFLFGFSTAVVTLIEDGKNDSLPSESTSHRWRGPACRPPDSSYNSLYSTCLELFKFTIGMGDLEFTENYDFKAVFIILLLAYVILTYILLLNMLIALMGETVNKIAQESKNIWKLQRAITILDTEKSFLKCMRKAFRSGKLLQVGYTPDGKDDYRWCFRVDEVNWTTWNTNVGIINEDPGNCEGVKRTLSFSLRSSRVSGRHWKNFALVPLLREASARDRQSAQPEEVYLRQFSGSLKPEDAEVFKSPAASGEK

## COc1cc(CNC(=O)CCCC/C=C/C(C)C)ccc1O [pure CAP, capsaicin]
[1]; FIG. 3, 15 to 3000 minutes
  time of peak CAP concentration (cumulative release): around 500 minutes
[1]; FIG. 3, up to 3000 minutes
  course of CAP concentration after the peak: steadily decrease
[2]; absence of TRPV1 protein in adipose tissue
  effect on high fat diet-induced weight gain in the absence of the TRPV1 protein in adipose tissue: does not inhibit high fat diet-induced weight gain
[2]; mouse model systems
  effect on high fat diet-induced weight gain: inhibit high fat diet-induced weight gain
[3]
  time at which rise in Ca2+ concentration begins: approximately 175 seconds
  time of peak rise in Ca2+ concentration: about 300 seconds
